# Measured values from ChEMBL document CHEMBL1166002, “Vanchrobactin and anguibactin siderophores produced by Vibrio sp. DS40M4” (J Nat Prod, 2010).
# Tested on: PC-3; call rule not given here
# Assay: Cytotoxicity against human PC3 cells by MTT assay
# Assay type: functional, cell-based
row,Structure (SMILES),IC50
1,N=C(N)NCCC[C@@H](NC(=O)c1cccc(O)c1O)C(=O)N[C@@H](COC(=O)[C@H](CO)NC(=O)[C@@H](CCCNC(=N)N)NC(=O)c1cccc(O)c1O)C(=O)O [DIVANCHROBACTIN],Not Active
2,N=C(N)NCCC[C@@H](NC(=O)c1cccc(O)c1O)C(=O)N[C@@H](COC(=O)[C@H](COC(=O)[C@H](CO)NC(=O)[C@@H](CCCNC(=N)N)NC(=O)c1cccc(O)c1O)NC(=O)[C@@H](CCCNC(=N)N)NC(=O)c1cccc(O)c1O)C(=O)O [TRIVANCHROBACTIN],Not Active
3,N=C(N)NCCC[C@@H](NC(=O)c1cccc(O)c1O)C(=O)N[C@@H](CO)C(=O)O [VANCHROBACTIN],Not Active
